This passage reports GI50 and TGI results from PubChem BioAssay (NCI).

Common to all, as to experiment: NCI tumour cell line growth inhibition, 48 h
For assay [1], the system named is ACHN renal.
Assay [2] relates to NCI-H23 lung.
The test system of assay [3] is OVCAR-5 ovarian.
In assay [4] the test system is RXF 393 renal.
Assay [5] concerns SF-268 CNS.
The test system of assay [6] is SK-MEL-28 melanoma.
For assay [7], the system named is SNB-19 CNS.
Assay [8] relates to 786-0 renal.
In assay [9] the test system is K-562 leukemia.
Assay [10] relates to HOP-92 NSCLC.

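Five concentrations, 48 hours, 96-well plates. The concentration for 50% growth inhibition is given as GI50. TGI: concentration producing complete growth inhibition.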

On to `O=C(CSc1nc2ccccc2[nH]1)Nc1ccc(-c2nc3ccccc3s2)c(Cl)c1`, for which the GI50 was 4.52 µM in assay [1]; 1.88 µM in [2]; 3.63 µM in assay [3]; 2.66 µM in [4]; 1.88 µM in assay [5]; 2.73 µM in [6]. The GI50 in assay [7] was 5.44 µM. In addition, the TGI in assay [1] worked out at 57.4 µM; in assay [2], 4.27 µM; in assay [3], 13.6 µM; in assay [4] it was 8.85 µM; in assay [5], 4.37 µM; in [6], 7.59 µM. This molecule gave a TGI in assay [7] of 65.8 µM.

As for `O=C(Nc1ccccc1F)c1c(O)nc2sccn2c1=O`, the TGI in [1], in assay [2], in [3], in assay [4], in assay [5] and in [6] was more than 10 µM in each case. The molecule also came in with a TGI in assay [7] of more than 10 µM.

Consider `Cc1ccc2[nH]cc(-c3nc(-c4c[nH]c5ncccc45)cs3)c2c1`, for which the GI50 in assay [1], in assay [2], in [3], in assay [5], in assay [6] and in [7] was more than 100 µM throughout. The TGI in assay [1], in assay [2], in assay [3], in assay [5], in [6] and in assay [7] was more than 100 µM each time.

As for `S=C1c2ccccc2NC(=NC2CCCC2)C2CSCN12` (centres undefined), the TGI in assay [8], in assay [1], in assay [9], in assay [3], in assay [4] and in assay [5] was more than 100 µM in each case. The TGI in assay [6] and in assay [7] was more than 100 µM throughout.

For the molecule `O=c1[nH]nc(Cc2ccccc2)n1/N=C/c1c[nH]c2ccccc12`, the TGI in [8], in assay [1], in [10], in [9], in assay [2] and in assay [3] was more than 100 µM in each case. Besides, the TGI in [5] is 88.1 µM; in assay [6] it was more than 100 µM; in assay [7], more than 100 µM.

For the molecule `COc1ccc2[nH]c3c(c2c1)CCN(C)CC3`, the TGI in assay [8], in [1], in assay [10], in assay [9], in assay [2] and in [3] was more than 100 µM each time. In addition, the TGI in assay [5], in assay [6] and in assay [7] was more than 100 µM in each case.

Consider `Cc1ccc(C(=O)N(C2CCCCC2)C2CCCCC2)cc1N=NN(C)C`, for which the TGI stood at 28.7 µM in assay [8]; 22.4 µM in assay [1]; 23.4 µM in [10]; 47.6 µM in assay [9]; 27.9 µM in assay [2]; 38.2 µM in assay [3]. The TGI in [5] worked out at 27.7 µM; in assay [6], 17.9 µM; in assay [7] it was 26.4 µM.

`O=[N+]([O-])c1cccc(-c2csc(N=Nc3c(O)[nH]c4ccccc34)n2)c1`: the TGI was 29.8 µM in assay [8]; more than 100 µM in [1]; 46.5 µM in assay [10]; more than 100 µM in [2]; more than 100 µM in assay [3]; 77.9 µM in assay [4]. The results for the TGI in [5], in assay [6] and in assay [7] were 38.4 µM, 36.1 µM and 82.2 µM, respectively.

For the molecule `CC(=O)C(C(C)=O)=C1CCCC(O)O1` (centres undefined), the TGI in [8], in [1], in assay [9], in assay [2], in assay [3] and in [4] was more than 100 µM throughout. Further, the TGI in [5], in [6] and in assay [7] was more than 100 µM in each case.

Regarding `Cc1ccc(C(=O)OC[C@H]2CC[C@@H](n3cc(N(C)C4CCCCC4)c(=O)[nH]c3=O)O2)cc1`, the TGI in assay [8] was more than 100 µM; in assay [1] it was 79.3 µM; in assay [9], more than 100 µM; in assay [2], more than 100 µM; in assay [3], 81 µM; in assay [4], 37.7 µM. Besides, the results for the TGI in [5], in [6] and in assay [7] were 86.5 µM, more than 100 µM and 61.4 µM, respectively.

Turning to `COc1cccc2cc(C)c(C(=O)c3ccccc3)nc12`, the TGI in assay [8], in [1], in assay [9], in assay [2], in assay [3] and in assay [4] was more than 100 µM throughout. The TGI in assay [5], in [6] and in [7] was more than 100 µM in each case.

Consider `COc1ccc2c(c1)O[C@@H]1C(O)Oc3cc(OC)c(OC)cc3[C@]1(O)C2=O` (some centres undefined), for which the TGI in assay [8], in assay [1], in [9], in [2], in [3] and in assay [4] was more than 100 µM throughout. Moreover, the TGI in [5], in [6] and in [7] was more than 100 µM in each case.

Take `CCCCOC(=O)CNC(=O)OCCCCC#CC#CCCCCOC(=O)NCC(=O)OCCCC`: the TGI in [8], in assay [1], in assay [9], in assay [2], in assay [3] and in assay [5] was more than 100 µM each time. In addition, the TGI in assay [7] was more than 100 µM.

For the molecule `Cc1cnoc1NC1=CC(=O)C(=O)c2ccccc21`, the TGI is more than 100 µM in assay [8]; more than 100 µM in assay [1]; more than 100 µM in assay [10]; 10.9 µM in assay [9]; 32.7 µM in [2]; 55.9 µM in assay [3]. The TGI was 94.3 µM in [5], more than 100 µM in [6] and 73.5 µM in assay [7].
